Results reported in EP1714978A1, “Peptides useful for diagnosis and therapy of tumors” (Deutsches Krebsforschungszentrum Stiftung des öffentlichen …, priority 2005, dated 2006).

Legend:
FRO82-2 tumor = test: Organ distribution in tumor-bearing nude mice; format: in vivo, Balb/c nu/nu mice; conditions: summary statement; ^131I-FROP-1 i.v., values only in Figure 6
Method: • (A) Mice: Female 6-week-old BALB/c nu/nu mice were obtained from Charles River WIGA (Sulzfeld, Germany) and housed in VentiRacks. For inoculation of the tumors in nude mice a Matrigel-matrix/cell suspension (5×10^6 cells) was injected subcutaneously into the anterior region of the mouse trunk. Tumors were grown up to a size of approximately 1.0 cm^3. All animals were cared for according to the German animal guidelines. • (B) Peptide synthesis and labeling: The FROP-1-Peptide (EDYELMDLLAYL) was obtained by solid-phase peptide synthesis using Fmoc-chemistry. The radiolabeling was achieved by iodination using the chloramine-T method (33). The labeled peptide was purified by HPLC on a LiChrosorb RP-select B 5 µm, 250 ×x 4 mm column (Merck, Darmstadt, Germany) using TRIS/phosphate and methanol as eluents. […] The solution was centrifuged 5 min at 13,000 rpm and the cleared lysate was analyzed by HPLC. • (D) In vitro binding assay: 300,000 cells were seeded into 6-well plates and cultivated for 24 hours. […] Radioactivity was determined with a gamma counter and calculated as percent applied dose per 10^6 cells. […] The organs were removed, weighed and the radioactivity was determined using an automated NaI(Tl) well counter (CobraII, Canberra Packard, Meriden, USA). The percentage of injected dose per gram of tissue was calculated. […]

various tumor cell lines = test: Competition of ^125I-labelled FROP-1 uptake by unlabelled FROP-1, various tumor cell lines; format: binding; conditions: in the presence of 10^-4 unlabelled FROP-1 as a competitor, 1 hour
Method: (§1) • (A) Mice: Female 6-week-old BALB/c nu/nu mice were obtained from Charles River WIGA (Sulzfeld, Germany) and housed in VentiRacks. For inoculation of the tumors in nude mice a Matrigel-matrix/cell suspension (5×10^6 cells) was injected subcutaneously into the anterior region of the mouse trunk. Tumors were grown up to a size of approximately 1.0 cm^3. All animals were cared for according to the German animal guidelines. • (B) Peptide synthesis and labeling: The FROP-1-Peptide (EDYELMDLLAYL) was obtained by solid-phase peptide synthesis using Fmoc-chemistry. The radiolabeling was achieved by iodination using the chloramine-T method (33). […] The solution was centrifuged 5 min at 13,000 rpm and the cleared lysate was analyzed by HPLC. • (D) In vitro binding assay: 300,000 cells were seeded into 6-well plates and cultivated for 24 hours. […] Radioactivity was determined with a gamma counter and calculated as percent applied dose per 10^6 cells. […] The organs were removed, weighed and the radioactivity was determined using an automated NaI(Tl) well counter (CobraII, Canberra Packard, Meriden, USA). The percentage of injected dose per gram of tissue was calculated.
(§2) 2 x 10^5 cells of various tumor cell lines were seeded into 6-well plates. […] The radioactivity of lysed cells was determined with a gamma counter. […]

[1] = system: FRO82-2 cells (follicular thyroid cancer cell line); test: In vitro binding/uptake of ^125I-labelled FROP-1 by FRO82-2 cells; design: species or system human; conditions: ^125I-labelled FROP-1, about 1 x 10^6 cpm per well, 1 hour, RPMI 1640 without FCS and BSA
Method: as §1, §2

[2] = system: PC-3 (prostate carcinoma cell lines); test: In vitro binding/uptake of ^125I-labelled FROP-1 by PC-3 cells; conditions: ^125I-labelled FROP-1, about 1 x 10^6 cpm per well, 1 hour, RPMI 1640 without FCS and BSA
Method: as §1, §2

[3] = system: DU-145 (prostate carcinoma cell lines); test: In vitro binding/uptake of ^125I-labelled FROP-1 by DU-145 cells; conditions: ^125I-labelled FROP-1, about 1 x 10^6 cpm per well, 1 hour, RPMI 1640 without FCS and BSA
Method: as §1, §2

[4] = system: MCF-7 cells (mamma carcinoma cell line); test: In vitro binding/uptake of ^125I-labelled FROP-1 by MCF-7 cells; conditions: ^125I-labelled FROP-1, about 1 x 10^6 cpm per well, 1 hour, RPMI 1640 without FCS and BSA
Method: as §1, §2

[5] = system: HeLa cells (cervix carcinoma cell line); test: In vitro binding/uptake of ^125I-labelled FROP-1 by HeLa cells; conditions: ^125I-labelled FROP-1, about 1 x 10^6 cpm per well, 1 hour, RPMI 1640 without FCS and BSA
Method: as §1, §2

Substance: FROP-1: novel 12 amino acid peptide from phage display, aa sequence EDYELMDLLAYL
- accumulation in tumors in vivo (FRO82-2 tumor): accumulates in vivo at/in tumors
- binding can be competed (various tumor cell lines): 95%
- binding of FROP-1 to FRO82-2 cells [1]: efficient binding
- binding of FROP-1 to PC-3 [2]: efficient binding
- binding of FROP-1 to DU-145 [3]: efficient binding
- binding of FROP-1 to MCF-7 cells [4]: efficient binding
- binding of FROP-1 to HeLa cells [5]: efficient binding
